The values that follow come from patent publication US6215002A, “Pyrrolopyrrolone derivatives as inhibitors of neutrophil elastase” (priority 1996, dated 2001).

Counter-ions that a name gives are not always drawn.

This assay deals with T1, human neutrophil elastase (Homo sapiens, UniProt P08246).
T1 sequence (P08246 30-267): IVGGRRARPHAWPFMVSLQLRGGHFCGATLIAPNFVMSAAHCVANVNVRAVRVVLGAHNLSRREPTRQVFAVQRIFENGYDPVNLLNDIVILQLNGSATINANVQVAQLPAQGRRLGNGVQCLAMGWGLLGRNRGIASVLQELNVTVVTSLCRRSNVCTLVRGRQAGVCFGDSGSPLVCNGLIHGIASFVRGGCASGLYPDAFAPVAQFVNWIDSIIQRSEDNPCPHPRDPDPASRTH
Put plainly: In vitro assay of human neutrophil elastase (HNE). The class given is biochemical. The settings on record: 118 nM purified human neutrophil elastase, pH 8.6, 15 min incubation at 30° C., MeO-succinyl-alanyl-alanyl-prolyl-valyl-p-nitroanilide substrate; read-out: HNE IC50. The method, then:
In Vitro Assays of Human Neutrophil Elastase
118 nM purified human neutrophil elastase
Suitable concentrations of compound under test diluted with water from a 10 mM stock solution in dimethylsulphoxide. Values above are final concentrations after the addition of substrate solution (see below).
The mixture above is incubated for fifteen minutes at 30° C. at which time the remaining elastase activity is measured for 10 minutes in a BioTek 340i plate-reader, after the addition of 0.6 mM MeO-succinyl-alanyl-alanyl-prolyl-valyl-p-nitroanilide. The rate of increase in absorbance at 405 nm is proportional to elastase activity. Enzyme activity is plotted against concentration of inhibitor and an IC50 determined using curve fitting software.
1. The compounds were tested in the in vitro elastase test described earlier in the description.
The IC50 is the midpoint of a concentration-inhibition curve. `CCC[C@H]1C(=O)N(S(C)(=O)=O)[C@H]2CCN(S(=O)(=O)Cc3cccc(-c4nnn[nH]4)c3)[C@H]12` (relative stereo) [Example 27, rel-(3R,3aR,6aS)-1-Methanesulfonyl-3-propyl-4-[3-(1H-tetrazol-5-yl)-phenylmethanesulfonyl]-hexahydro-pyrrolo[3,2-b]pyrrol-2-one]: the IC50 amounted to 55 nM.

On to `CCC[C@H]1C(=O)N(S(C)(=O)=O)[C@H]2CCN(C(C)=O)[C@H]12` (relative stereo) [Example 28, rel-(3R,3aR,6aS)-4-Acetyl-1-methanesulfonyl-3-propyl-hexahydro-pyrrolo[3,2-b]pyrrol-2-one], for which the IC50 came to 64 nM.

`CCC[C@H]1C(=O)N(S(C)(=O)=O)[C@H]2CCN(C(=O)CCN3CCCCC3)[C@H]12` (relative stereo) [Example 30, rel-(3R,3aR,6aS)-1-Methanesulfonyl-4-(3-piperidin-1-yl-propionyl)-3-propyl-hexahydro-pyrrolo[3,2-b]pyrrol-2-one hydrochloride]: the IC50 stood at 189 nM.

Regarding `CCC[C@H]1C(=O)N(S(=O)(=O)c2cccc3ccccc23)[C@H]2CCN(S(C)(=O)=O)[C@H]12` (relative stereo) [Example 31, rel-(3R,3aR,6aS)-4-Methanesulfonyl-1-(naphthalene-1-sulfonyl)-3-propyl-hexahydro-pyrrolo[3,2-b]pyrrol-2-one], the IC50 is 80 nM.

In the case of `CCC[C@H]1C(=O)N(S(=O)(=O)c2cccc3ccccc23)[C@H]2CCN(S(=O)(=O)Cc3cccc(-c4nn[nH]n4)c3)[C@H]12` (relative stereo) [Example 32, rel-(3R,3aR,6aS)-1-(Naphthalene-1-sulfonyl)-3-propyl-4-[3-(1H-tetrazol-5-yl)-phenylmethanesulfonyl]-hexahydro-pyrrol[3,2-b]pyrrol-2-one], the IC50 worked out at 286 nM.

On to `CCC[C@H]1C(=O)N(S(=O)(=O)/C=C/c2ccccc2)[C@H]2CCN(S(=O)(=O)Cc3ccccc3)[C@H]12` (relative stereo) [Example 33, rel-(3R,3aR,6aS)-1-(2-Phenyl-(E)-ethenesulfonyl)-4-phenylmethanesulfonyl-3-propyl-hexahydro-pyrrolo[3,2-b]pyrrol-2-one], for which the IC50 came out at 458 nM.

`CCC[C@H]1C(=O)N(S(=O)(=O)c2ccc3ccccc3c2)[C@H]2CCN(S(=O)(=O)Cc3ccccc3)[C@H]12` (relative stereo) [Example 34, rel-(3aR,6R,6aS)-1-(Naphthalene-2-sulfonyl)-4-phenylmethanesulfonyl-3-propyl-hexahydro-pyrrolo[3,2-b]pyrrol-2-one]: the IC50 came out at 52 nM.

As for `CC[C@H]1C(=O)N(S(=O)(=O)c2ccc3ccccc3c2)[C@H]2CCN(S(=O)(=O)CCCN3CCOCC3)[C@H]12` (relative stereo) [Example 35, rel-(3R,3aR,6aS)-3-Ethyl-4-(3-morpholin-4-yl)-propane-1-sulfonyl)-1-(naphthalene-2-sulfonyl)-hexahydro-pyrrolo[3,2-b]pyrrol-2-one meso-tartrate], the IC50 amounted to 697 nM.

As for `CCC[C@H]1C(=O)N(S(=O)(=O)c2cccc3ccccc23)[C@H]2CCN(S(=O)(=O)CCCN3CCOCC3)[C@H]12` (relative stereo) [Example 36, rel-(3R,3aR,6aS)-4-(3-Morpholin-4-yl-propane-1-sulfonyl)-1-(naphthalene-1-sulfonyl)-3-propyl-hexahydro-pyrrolo[3,2-b]pyrrol-2-one], the IC50 amounted to 125 nM.

In the case of `C=CC[C@H]1C(=O)N(S(=O)(=O)c2cccc(S(=O)(=O)N(C)C)c2)[C@H]2CCN(C(=O)OCc3ccccc3)[C@H]12` (relative stereo) [Example 37, rel-(3aS,6R,6aR)-6-Allyl-4-(3-dimethylsulfamoyl-benzenesulfonyl)-5-oxo-hexahydro-pyrrolo[3,2-b]pyrrole-1-carboxylic acid benzyl ester], the IC50 turned out to be 138 nM.

Take `C=CC[C@H]1C(=O)N(S(=O)(=O)c2cccc([N+](=O)[O-])c2)[C@H]2CCN(C(=O)OCc3ccccc3)[C@H]12` (relative stereo) [Example 38, rel-(3aS,6R,6aR)-6-Allyl-4-(3-nitro-benzenesulfonyl)-5-oxo-hexahydro-pyrrolo[3,2-b]pyrrole-1-carboxylic acid benzyl ester]: the IC50 turned out to be 205 nM.

Consider `CCC[C@H]1C(=O)N(S(=O)(=O)c2ccc3ccccc3c2)[C@H]2CCN(C(=O)CCCN3CCCCC3)[C@H]12` (relative stereo) [Example 39, rel-(3R,3aR,6aS)-1-(Naphthalene-2-sulfonyl)-4-(4-piperidin-l-yl-butyryl)-3-propyl-hexahydro-pyrrolo[3,2-b]pyrrol-2-one tartrate], for which the IC50 turned out to be 189 nM.

As for `CCC[C@H]1C(=O)N(S(=O)(=O)c2ccc3ccccc3c2)[C@H]2CCN(C(=O)CCCCCN3CCCCC3)[C@H]12` (relative stereo) [Example 40, rel-(3R,3aR,6aS)-1-(Naphthalene-2-sulfonyl)-4-(6-piperidin-1-yl-hexanoyl)-3-propyl-hexahydro-pyrrolo[3,2-b]pyrrol-2-one tartrate], the 50% inhibitory concentration (IC50) was found to be 50 nM.

Turning to `C=CC[C@H]1C(=O)N(S(=O)(=O)c2csc3ccccc23)[C@H]2CCN(C(=O)OCc3ccccc3)[C@H]12` (relative stereo) [Example 41, rel-(3aS,6R,6aR)-6-Allyl-4-(benzo[b]thiophene-3-sulfonyl)-5-oxo-hexahydro-pyrrolo[3,2-b]pyrrole-1-carboxylic acid benzyl ester], the IC50 is 84 nM.

On to `C=CC[C@H]1C(=O)N(S(=O)(=O)c2cc3ccccc3s2)[C@@H]2CCN(C(=O)OCc3ccccc3)[C@H]21` (relative stereo) [Example 42, rel-(3aR,6R,6aS)-6-Allyl-4-(benzo[b]thiophene-2-sulfonyl)-5-oxo-hexahydro-pyrrolo[3,2-b]pyrrole-1-carboxylic acid benzyl ester], for which the IC50 was 78 nM.

In the case of `C=CC[C@H]1C(=O)N(S(=O)(=O)CCc2ccccc2)[C@H]2CCN(C(=O)OCc3ccccc3)[C@H]12` (relative stereo) [Example 43, rel-(3aS,6R,6aR)-6-Allyl-5-oxo-4-(2-phenyl-ethanesulfonyl)-hexahydro-pyrrolo[3,2-b]pyrrole-1-carboxylic acid benzyl ester], the IC50 amounted to 408 nM.

Consider `C=CC[C@H]1C(=O)N(S(=O)(=O)/C=C/c2ccccc2)[C@H]2CCN(C(=O)OCc3ccccc3)[C@H]12` (relative stereo) [Example 44, rel-(3aS,6R,6aR)-6-Allyl-5-oxo-4-(2-phenyl-(E)-ethenesulfonyl)-hexahydro-pyrrolo[3,2-b]pyrrole-1-carboxylic acid benzyl ester], for which the IC50 came to 94 nM.

As for `C=CC[C@H]1C(=O)N(S(=O)(=O)c2ccccc2)[C@H]2CCN(C(=O)OCc3ccccc3)[C@H]12` (relative stereo) [Example 45, rel-(3aS,6R,6aR)-6-Allyl-4-benzenesulfonyl-5-oxo-hexahydro-pyrrolo[3,2-b]pyrrole-1-carboxylic acid benzyl ester], the IC50 was 531 nM.

Turning to `CCC[C@H]1C(=O)N(S(C)(=O)=O)[C@H]2CCN(C(=O)CCN3CCOCC3)[C@H]12` (relative stereo) [Example 46, rel-(3R,3aR,6aS)-1-Methanesulfonyl-4-(3-morpholin-4-yl-propionyl)-3-propyl-hexahydro-pyrrolo[3,2-b]pyrrol-2-one], the IC50 came out at 143 nM.

`CCC[C@H]1C(=O)N(S(C)(=O)=O)[C@H]2CCN(C(=O)CCCN3CCOCC3)[C@H]12` (relative stereo) [Example 47, rel-(3R,3aR,6aS)-1-Methanesulfonyl-4-(4-morpholin-4-yl-butyryl)-3-propyl-hexahydro-pyrrolo[3,2-b]pyrrol-2-one]: the IC50 worked out at 109 nM.

Consider `CCC[C@H]1C(=O)N(S(=O)(=O)c2ccc3ccccc3c2)[C@H]2CCN(C(=O)CCc3ccccn3)[C@H]12` (relative stereo) [Example 48, rel-(3R,3aR,6aS)-1-(Naphthalene-2-sulfonyl)-3-propyl-4-(3-pyridin-2yl-propionyl)-hexahydro-pyrrolo[3,2-b]pyrrol-2-one], for which the IC50 came out at 122 nM.

For the compound `C=CC[C@H]1C(=O)N(S(=O)(=O)c2cccc3cccnc23)[C@H]2CCN(C(=O)OCc3ccccc3)[C@H]12` (relative stereo) [Example 49, rel-(3aS,6R,6aR)-6-Allyl-5-oxo-4-(quinoline-8-sulfonyl)-hexahydro-pyrrolo[3,2-b]pyrrole-1-carboxylic acid benzyl ester], the IC50 was 412 nM.

For `CCC[C@H]1C(=O)N(S(=O)(=O)c2cccc3c2NCCC3)[C@H]2CCN(C(=O)OCc3ccccc3)[C@H]12` (relative stereo) [Example 50, rel-(3aS,6R,6aR)-5-Oxo-6-propyl-4-(1,2,3,4-tetrahydro-quinoline-8-sulfonyl-hexahydro-pyrrolo[3,2-b]pyrrole-1-carboxylic acid benzyl ester], the IC50 came out at 362 nM.

As to `CCC[C@H]1C(=O)N(S(=O)(=O)c2cccc3cnccc23)[C@H]2CCN(S(C)(=O)=O)[C@H]12` (relative stereo) [Example 51, rel-(3R,3aR,6aS)-1-(Isoquinoline-5-sulfonyl)-4-methanesulfonyl-3-propyl-hexahydro-pyrrolo[3,2-b]pyrrol-2-one], the IC50 amounted to 55 nM.
